# Assay results from patent publication US8791129B2, “Phenylquinazoline derivatives” (Merck Patent GmbH, priority 2010, dated 2014).
# pIC50: −log10 of the molar value.
# Target: T1, Recombinant human HSP90α (Homo sapiens, UniProt P07900)
# T1 construct: host or cells: E. coli
# Assay: Radioligand filter binding test with [3H]17AAG for the measurement of HSP90 inhibitors
# Settings: competition with [3H]17AAG 0.08 μM; HSP90 1.5 μg/assay; 22° C., 30 min; read-out: IC50 (HSP90 inhibition)
# Excerpt: Test Method for the Measurement of HSP90 Inhibitors
# The binding of geldanamycin or 17-allylamino-17-demethoxygeldanamycin (17AAG) to HSP90 and competitive inhibition thereof can be utilised in order to determine the inhibitory activity of the compounds according to the invention (Carreras et al. 2003, Chiosis et al. 2002).
# In the specific case, a radioligand filter binding test is used. The radioligand used here is tritium-labelled 17-allylaminogeldanamycin, [3H]17AAG. This filter binding test allows a targeted search for inhibitors which interfere with the ATP binding site.
# Recombinant human HSP90α (E. coli expressed, 95% purity);
# [3H]17AAG (17-allylaminogeldanamycin, [allylamino-2,3-^3H. Specific activity: 1.11×10^12 Bq/mmol (Moravek, MT-1717);
# HEPES filter buffer (50 mM HEPES, pH 7.0, 5 mM MgCl2, BSA 0.01%)
# Multiscreen FB (1 μm) filter plate (Millipore, MAFBNOB 50).
# The 96-well microtitre filter plates are firstly irrigated and coated with 0.1% of polyethyleneimine.
# The test is carried out under the following conditions:
# Reaction temperature 22° C.
# Reaction time: 30 min., shaking at 800 rpm
# 50 mM HEPES HCl, pH 7.0, 5 mM MgCl2, 0.01% (w/v) of BSA
# At the end of the reaction, the supernatant in the filter plate is removed by suction with the aid of a vacuum manifold (Multiscreen Separation System, Millipore), and the filter is washed twice.
# The filter plates are then measured in a beta counter (Microbeta, Wallac) with scintillator (Microscint 20, Packard).
# “% of control” is determined from the “counts per minutes” values, and the IC-50 value of a compound is calculated therefrom.
row,pIC50,SMILES
1,6.00 to 8.00,CN(CCO)Cc1ccccc1-c1ccc2nc(N)nc(C(=O)N3Cc4ccccc4C3)c2c1
2,6.00 to 8.00,CCN(CCO)Cc1ccccc1-c1ccc2nc(N)nc(C(=O)N3Cc4ccccc4C3)c2c1
3,6.00 to 8.00,Nc1nc(C(=O)N2Cc3ccccc3C2)c2cc(-c3ccccc3CN3CCC(O)CC3)ccc2n1
4,6.00 to 8.00,CC(C)(C)NCc1ccccc1-c1ccc2nc(N)nc(C(=O)N3Cc4ccccc4C3)c2c1
5,6.00 to 8.00,Nc1nc(C(=O)N2Cc3ccccc3C2)c2cc(-c3ccccc3CN3CCCC3)ccc2n1
6,6.00 to 8.00,CC1CCCN1Cc1ccccc1-c1ccc2nc(N)nc(C(=O)N3Cc4ccccc4C3)c2c1 (centres unmarked)
7,6.00 to 8.00,Nc1nc(C(=O)N2Cc3ccccc3C2)c2cc(-c3ccccc3CN3CCC(CO)C3)ccc2n1 (centres unmarked)
8,6.00 to 8.00,Nc1nc(C(=O)N2Cc3ccccc3C2)c2cc(-c3ccccc3CN3CCC(O)C3)ccc2n1 (centres unmarked)
9,6.00 to 8.00,Nc1nc(C(=O)N2Cc3ccccc3C2)c2cc(-c3ccccc3CN3CCC(N)C3)ccc2n1 (centres unmarked)
10,6.00 to 8.00,CCN(C)Cc1ccccc1-c1ccc2nc(N)nc(C(=O)N3Cc4ccccc4C3)c2c1
11,6.00 to 8.00,CCN(CC)Cc1ccccc1-c1ccc2nc(N)nc(C(=O)N3Cc4ccccc4C3)c2c1
12,6.00 to 8.00,CNC(=O)C1CCCN1Cc1ccccc1-c1ccc2nc(N)nc(C(=O)N3Cc4ccccc4C3)c2c1 (centres unmarked)
13,6.00 to 8.00,Nc1nc(C(=O)N2Cc3ccccc3C2)c2cc(-c3ccccc3CN3CCCC3C(=O)NCCO)ccc2n1 (centres unmarked)
14,6.00 to 8.00,Nc1nc(C(=O)N2Cc3ccccc3C2)c2cc(-c3ccccc3CNC3CC3)ccc2n1
15,6.00 to 8.00,Nc1nc(C(=O)N2Cc3ccccc3C2)c2cc(-c3ccccc3CNC3CCC3)ccc2n1
16,6.00 to 8.00,Nc1nc(C(=O)N2Cc3ccccc3C2)c2cc(-c3ccccc3CN3CCC(F)(F)C3)ccc2n1
17,6.00 to 8.00,CC1CCC(C)N1Cc1ccccc1-c1ccc2nc(N)nc(C(=O)N3Cc4ccccc4C3)c2c1 (centres unmarked)
18,6.00 to 8.00,Nc1nc(C(=O)N2Cc3ccccc3C2)c2cc(-c3ccccc3CN3CC[C@H](F)C3)ccc2n1
19,6.00 to 8.00,C[C@@H]1CCCN1Cc1ccccc1-c1ccc2nc(N)nc(C(=O)N3Cc4ccccc4C3)c2c1
20,6.00 to 8.00,CC(C)(C)NCc1cc(F)ccc1-c1ccc2nc(N)nc(C(=O)N3Cc4ccccc4C3)c2c1
21,6.00 to 8.00,CC1CCCN1Cc1cc(F)ccc1-c1ccc2nc(N)nc(C(=O)N3Cc4ccccc4C3)c2c1 (centres unmarked)
22,6.00 to 8.00,CC1CCCN1Cc1ccc(F)cc1-c1ccc2nc(N)nc(C(=O)N3Cc4ccccc4C3)c2c1 (centres unmarked)

row,pIC50,SMILES
1,6.00 to 8.00,CC(C)(C)NCc1ccc(F)cc1-c1ccc2nc(N)nc(C(=O)N3Cc4ccccc4C3)c2c1
2,6.00 to 8.00,NC(=O)CNCc1ccccc1-c1ccc2nc(N)nc(C(=O)N3Cc4ccccc4C3)c2c1
3,6.00 to 8.00,Nc1nc(C(=O)N2Cc3ccccc3C2)c2cc(-c3ccccc3CN(CCO)CCO)ccc2n1
4,6.00 to 8.00,C[C@H]1CCCN1Cc1ccccc1-c1ccc2nc(N)nc(C(=O)N3Cc4ccccc4C3)c2c1
5,6.00 to 8.00,CN(Cc1ccccc1-c1ccc2nc(N)nc(C(=O)N3Cc4ccccc4C3)c2c1)C1CC1
6,6.00 to 8.00,CCN(C)Cc1ccc(F)cc1-c1ccc2nc(N)nc(C(=O)N3Cc4ccccc4C3)c2c1
7,6.00 to 8.00,CN1CCN(Cc2ccc(F)cc2-c2ccc3nc(N)nc(C(=O)N4Cc5ccccc5C4)c3c2)CC1
8,6.00 to 8.00,CN1CCN(Cc2cc(F)ccc2-c2ccc3nc(N)nc(C(=O)N4Cc5ccccc5C4)c3c2)CC1
9,6.00 to 8.00,CCN(CCO)Cc1ccc(F)cc1-c1ccc2nc(N)nc(C(=O)N3Cc4ccccc4C3)c2c1
10,6.00 to 8.00,CC(C)(C)NCc1cc(F)c(F)cc1-c1ccc2nc(N)nc(C(=O)N3Cc4ccccc4C3)c2c1
11,6.00 to 8.00,CCN(C)Cc1cc(F)c(F)cc1-c1ccc2nc(N)nc(C(=O)N3Cc4ccccc4C3)c2c1
12,6.00 to 8.00,CCN(CC)Cc1cc(F)c(F)cc1-c1ccc2nc(N)nc(C(=O)N3Cc4ccccc4C3)c2c1
13,6.00 to 8.00,Nc1nc(C(=O)N2Cc3ccccc3C2)c2cc(-c3cc(F)c(F)cc3CN3CCCC3)ccc2n1
14,6.00 to 8.00,CC1CCC(C)N1Cc1cc(F)c(F)cc1-c1ccc2nc(N)nc(C(=O)N3Cc4ccccc4C3)c2c1 (centres unmarked)
15,6.00 to 8.00,CC1CCCN1Cc1cc(F)c(F)cc1-c1ccc2nc(N)nc(C(=O)N3Cc4ccccc4C3)c2c1 (centres unmarked)
16,6.00 to 8.00,CN(Cc1cc(F)c(F)cc1-c1ccc2nc(N)nc(C(=O)N3Cc4ccccc4C3)c2c1)C(C)(C)C
17,6.00 to 8.00,CN1CCN(Cc2cc(F)c(F)cc2-c2ccc3nc(N)nc(C(=O)N4Cc5ccccc5C4)c3c2)CC1
18,6.00 to 8.00,CCN(CC)Cc1ccc(F)cc1-c1ccc2nc(N)nc(C(=O)N3Cc4ccccc4C3)c2c1
19,6.00 to 8.00,Nc1nc(C(=O)N2Cc3ccccc3C2)c2cc(-c3cc(F)ccc3CN3CCC(O)CC3)ccc2n1
20,6.00 to 8.00,CC(C)(C)NCc1cc2c(cc1-c1ccc3nc(N)nc(C(=O)N4Cc5ccccc5C4)c3c1)OCO2
21,5.00 to 6.00,COc1cc(CO)c(-c2ccc3nc(N)nc(C(=O)N4Cc5ccccc5C4)c3c2)cc1OC
22,6.00 to 8.00,NCc1cc(F)c(F)cc1-c1ccc2nc(N)nc(C(=O)N3Cc4ccccc4C3)c2c1

row,pIC50,SMILES
1,6.00 to 8.00,NCCC(=O)NCc1cc(F)c(F)cc1-c1ccc2nc(N)nc(C(=O)N3Cc4ccccc4C3)c2c1
2,6.00 to 8.00,CN(C)CCC(=O)NCc1cc(F)c(F)cc1-c1ccc2nc(N)nc(C(=O)N3Cc4ccccc4C3)c2c1
3,6.00 to 8.00,NCCC(=O)OCc1cc(F)c(F)cc1-c1ccc2nc(N)nc(C(=O)N3Cc4ccccc4C3)c2c1
4,6.00 to 8.00,CN(C)CCCOCc1cc(F)c(F)cc1-c1ccc2nc(N)nc(C(=O)N3Cc4ccccc4C3)c2c1
5,6.00 to 8.00,CN(C)CCOCc1cc(F)c(F)cc1-c1ccc2nc(N)nc(C(=O)N3Cc4ccccc4C3)c2c1
6,6.00 to 8.00,NCCCOCc1cc(F)c(F)cc1-c1ccc2nc(N)nc(C(=O)N3Cc4ccccc4C3)c2c1
7,6.00 to 8.00,Nc1nc(C(=O)N2Cc3ccccc3C2)c2cc(-c3cc(F)c(F)cc3COCCO)ccc2n1
8,6.00 to 8.00,Nc1nc(C(=O)N2Cc3ccccc3C2)c2cc(-c3cc(F)c(F)cc3COCCOCCOCCO)ccc2n1
9,6.00 to 8.00,NCCC[C@H](N)C(=O)OCc1cc(F)c(F)cc1-c1ccc2nc(N)nc(C(=O)N3Cc4ccccc4C3)c2c1
10,6.00 to 8.00,CN(C)CCC(=O)OCc1cc(F)c(F)cc1-c1ccc2nc(N)nc(C(=O)N3Cc4ccccc4C3)c2c1
11,6.00 to 8.00,NCCCC[C@H](N)C(=O)OCc1cc(F)c(F)cc1-c1ccc2nc(N)nc(C(=O)N3Cc4ccccc4C3)c2c1
12,6.00 to 8.00,NOCc1cc(F)c(F)cc1-c1ccc2nc(N)nc(C(=O)N3Cc4ccccc4C3)c2c1
13,6.00 to 8.00,Nc1nc(C(=O)N2Cc3ccccc3C2)c2cc(-c3cc(F)c(F)cc3COP(=O)(O)O)ccc2n1
14,6.00 to 8.00,NCCCCC(N)C(=O)OCc1ccc(F)cc1-c1ccc2nc(N)nc(C(=O)N3Cc4ccccc4C3)c2c1 (centres unmarked)
15,6.00 to 8.00,CC(C)(C)OP(=O)(OCc1cc(F)c(F)cc1-c1ccc2nc(N)nc(C(=O)N3Cc4ccccc4C3)c2c1)OC(C)(C)C
16,6.00 to 8.00,CC(C)CC(N)C(=O)OCc1cc(F)c(F)cc1-c1ccc2nc(N)nc(C(=O)N3Cc4ccccc4C3)c2c1 (centres unmarked)
17,6.00 to 8.00,CC(C)(C)C(=O)OCc1cc(F)c(F)cc1-c1ccc2nc(N)nc(C(=O)N3Cc4ccccc4C3)c2c1
18,6.00 to 8.00,CC(C)(C)OC(=O)NCCCCCC(=O)OCc1cc(F)c(F)cc1-c1ccc2nc(N)nc(C(=O)N3Cc4ccccc4C3)c2c1
19,6.00 to 8.00,CC(C)(C)OC(=O)N1CCC[C@H]1C(=O)OCc1cc(F)c(F)cc1-c1ccc2nc(N)nc(C(=O)N3Cc4ccccc4C3)c2c1
20,6.00 to 8.00,NCCCC[C@H](N)C(=O)OCc1ccccc1-c1ccc2nc(N)nc(C(=O)N3Cc4ccccc4C3)c2c1
21,6.00 to 8.00,Nc1nc(C(=O)N2Cc3ccccc3C2)c2cc(-c3cc(F)c(F)cc3COC(=O)[C@@H]3CCCN3)ccc2n1
